In patent US20140057860A1, “PHARMACEUTICAL COMPOSITION FOR TREATING CARDIOVASCULAR AND CEREBROVASCULAR DISEASES AND METHOD OF MANUFACTURING THE SAME” (Macau University of Science and Technology, priority 2012, published 2014):
Like-named read-outs stand apart in the source and are kept apart here.

Tests used:
human MRP2 = target: T1, human MRP2 (Homo sapiens, UniProt Q92887); assay: MRP2 membrane vesicles transport assay with scutellarin as probe (Example 13); type: biochemical
T1 construct: purchased BD Biosciences; host or cells: insect Sf9 cells
T1 sequence (Q92887 whole entry): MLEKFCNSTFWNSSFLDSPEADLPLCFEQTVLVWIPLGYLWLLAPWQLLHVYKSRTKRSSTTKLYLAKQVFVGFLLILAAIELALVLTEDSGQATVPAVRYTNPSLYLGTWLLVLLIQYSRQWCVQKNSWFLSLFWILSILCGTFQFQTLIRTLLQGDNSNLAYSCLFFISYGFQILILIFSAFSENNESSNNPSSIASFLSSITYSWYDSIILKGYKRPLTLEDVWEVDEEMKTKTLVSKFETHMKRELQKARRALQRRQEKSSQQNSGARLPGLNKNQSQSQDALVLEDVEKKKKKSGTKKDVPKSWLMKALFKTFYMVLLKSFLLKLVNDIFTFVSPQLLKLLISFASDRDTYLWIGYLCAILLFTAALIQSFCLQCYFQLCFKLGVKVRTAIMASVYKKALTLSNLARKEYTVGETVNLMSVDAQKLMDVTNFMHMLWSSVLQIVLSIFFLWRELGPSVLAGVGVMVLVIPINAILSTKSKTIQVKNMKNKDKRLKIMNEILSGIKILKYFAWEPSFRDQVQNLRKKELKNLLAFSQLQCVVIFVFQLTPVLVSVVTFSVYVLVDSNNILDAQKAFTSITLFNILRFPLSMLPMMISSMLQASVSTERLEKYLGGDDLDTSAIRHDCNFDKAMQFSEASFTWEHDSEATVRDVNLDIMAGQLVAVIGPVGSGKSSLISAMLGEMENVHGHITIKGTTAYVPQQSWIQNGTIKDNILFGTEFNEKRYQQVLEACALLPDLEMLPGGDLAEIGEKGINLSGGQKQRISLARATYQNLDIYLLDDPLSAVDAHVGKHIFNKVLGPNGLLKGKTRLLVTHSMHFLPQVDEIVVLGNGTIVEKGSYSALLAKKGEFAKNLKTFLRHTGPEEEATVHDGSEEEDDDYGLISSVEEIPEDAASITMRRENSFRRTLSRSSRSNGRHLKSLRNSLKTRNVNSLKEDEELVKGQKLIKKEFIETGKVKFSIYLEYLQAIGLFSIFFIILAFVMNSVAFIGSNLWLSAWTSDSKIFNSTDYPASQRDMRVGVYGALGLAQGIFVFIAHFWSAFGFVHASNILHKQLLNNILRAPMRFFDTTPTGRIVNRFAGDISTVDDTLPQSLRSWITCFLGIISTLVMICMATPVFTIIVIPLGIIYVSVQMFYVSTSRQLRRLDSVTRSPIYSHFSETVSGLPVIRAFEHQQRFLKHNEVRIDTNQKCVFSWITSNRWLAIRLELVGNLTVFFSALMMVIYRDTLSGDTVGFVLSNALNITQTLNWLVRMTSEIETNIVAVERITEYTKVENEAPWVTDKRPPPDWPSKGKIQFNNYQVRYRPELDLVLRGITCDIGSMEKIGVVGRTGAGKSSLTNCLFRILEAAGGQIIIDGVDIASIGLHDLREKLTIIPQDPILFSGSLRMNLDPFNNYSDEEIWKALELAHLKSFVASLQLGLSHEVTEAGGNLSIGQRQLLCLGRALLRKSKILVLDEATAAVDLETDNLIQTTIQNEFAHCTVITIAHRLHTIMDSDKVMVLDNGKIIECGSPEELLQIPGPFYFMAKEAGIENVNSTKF
Description: With some changes in BD protocol of MRP2 vesicles assay, a rapid filtration technique of multiscreen HTS vacuum manifold (Millipore) was used in the analysis. […] The mixture was incubated in the buffer (250 mM sucrose, 10 mM MgCl2, 10 mM Tris/HCl, pH 7.4) at 37° C. for […], followed by addition of 15 μl of 25 mM MgATP or blank buffer to each well started the test. The mixture was incubated for 4 min and stopped by transferring the membrane vesicles to a filter plate.

Caco-2 monolayers [1] = type: in vitro ADME, human
Description: Caco-2 cells were seeded on 24-well Millicell insert filters with a density of about 1×10^5 cells/well. These cells were cultured for 21 days to reach confluence and differentiation. The integrity of Caco-2 cell monolayers was evaluated by monitoring trans-epithelial electrical resistance (TEER) on an epithelial volt ohmmeter (World Precision Instruments, Sarasota, Fla., USA). The impermeability (gate functions) of epithelial cell monolayers was measured by the fluorescein leakage test (FLT) that provided information on the effects of xenobiotics on the impermeability of epithelial cell monolayers. The differentiation was assessed using the alkaline phosphatase (ALP) assay at 562 nm
After the above measured parameters of the Caco-2 model became stable, transport study was performed from the apical (AP) to the basolateral (BL) side and from BL to AP at 37° C. Following 30 min of equilibration after the addition of 400 μl HBSS (pH 7.4) in AP side and 600 μl in BL side in an atmosphere of 5% CO2, the test solutions containing 100 μM scutellarin or each of 100 μg/ml of five surfactants Cremophor® EL, Cremophor® RH, Labrasol®, Pluronic® F68, and Pluronic® F127; each of 100 μg/ml of three oils Labrafac Lipophile® WL1349, Maisine® 35-1, and Capmul® MCM; each of 100 μg/ml of three co-surfactants Transcutol®, PEG 400, and PEG 2000; and each of 100 μg/ml of four solid carriers β-cyclodextrin, lactose, HPMC K4M®, HPMC K100®. The solutions were all dissolved in DMSO and HBSS and then added to the donor side. The sample of 100 μM scutellarin was used as the scutellarin standard group in comparing the excipients efflux effect. Permeability of scutellarin was measured at 37° C. from the AP to BL direction and BL to AP direction after incubating in 5% CO2 for respectively 30 min, 60 min, and 90 min. […] After 90 min of incubation, solutions from both AP and BL sides were collected. Then the separately collected samples from each well of AP and BL sides were diluted with equal amounts of methanol before they were injected into the LC-MS for quantification of scutellarin. At 30, 60, 90 min of incubation, TEER values were respectively detected before the samples were drawn from the tested wells.
In the Caco-2 permeation analysis, if the calculated efflux ratio of one excipient group was lower than scutellarin standard group, this excipient might possibly be indicated to have the inhibition effect on MRP2.

Caco-2 monolayers [2] = type: in vitro ADME; details: human
[3] = human, Caco-2, 90 min, 100 μg/ml, pH 7.4

Row | PappAB (Caco-2 monolayers [1]; Caco-2) | PappBA (Caco-2 monolayers [1]; Caco-2) | Compound | other results
1 | 4.04 ± 0.33 10^−6 cm · s^−1 | 9.33 ± 0.36 10^−6 cm · s^−1 | OC[C@H]1O[C@@H]2O[C@H]3[C@H](O)[C@@H](O)[C@@H](O[C@H]4[C@H](O)[C@@H](O)[C@@H](O[C@H]5[C@H](O)[C@@H](O)[C@@H](O[C@H]6[C@H](O)[C@@H](O)[C@@H](O[C@H]7[C@H](O)[C@@H](O)[C@@H](O[C@H]8[C@H](O)[C@@H](O)[C@@H](O[C@H]1[C@H](O)[C@H]2O)O[C@@H]8CO)O[C@@H]7CO)O[C@@H]6CO)O[C@@H]5CO)O[C@@H]4CO)O[C@@H]3CO [β-cyclodextrin] | scutellarin concentrations measured compared with scutellarin standard group (FIG. 2) (human MRP2; higher than standard means MRP2 inhibition): lower quantities of scutellarin than that of the standard group
2 | – | – | O=C(O)[C@H]1O[C@@H](Oc2cc3oc(-c4ccc(O)cc4)cc(=O)c3c(O)c2O)[C@H](O)[C@@H](O)[C@@H]1O [Scutellarin, 4,5,6-trihydroxyflavone-7-glucuronide] | identification as MRP2 substrate with MRP2 inhibitor MK571 (Caco-2 monolayers [2]): identified as the substrate for MRP2
3 | 1.84 ± 0.09 10^−6 cm · s^−1 | 5.31 ± 0.49 10^−6 cm · s^−1 | Pluronic ® F127 | Efflux reduction sequence (Caco-2 monolayers [1]; Caco-2): Cremophor® RH>Pluronic® F68>Labrasol®>Pluronic® F127
4 | 9.91 ± 0.35 10^−6 cm · s^−1 | 12.91 ± 1.60 10^−6 cm · s^−1 | polyethylene glycol [PEG 2000] | –
5 | 1.46 ± 0.08 10^−6 cm · s^−1 | 1.96 ± 0.05 10^−6 cm · s^−1 | polyethylene glycol [PEG 400] | –
6 | – | – | CCOCCOCCO [Transcutol ®, diethylene glycol monoethylether] | sequence of inhibition effects on MRP2 (human MRP2; within excipient group, p<0.05): PEG 2000>PEG 400>Transcutol®; PappAB (Caco-2 monolayers [1]; [3]): 2.69 ± 0.35 10^−6 cm · s^−1; PappBA (Caco-2 monolayers [1]; [3]): 5.99 ± 0.52 10^−6 cm · s^−1
7 | – | – | OC[C@H]1O[C@@H](O[C@H]2[C@H](O)[C@@H](O)C(O)O[C@@H]2CO)[C@H](O)[C@@H](O)[C@H]1O (stereo partly shown) [lactose] | PappAB (Caco-2 monolayers [1]; [3]): 1.44 ± 0.24 10^−6 cm · s^−1; PappBA (Caco-2 monolayers [1]; [3]): 7.90 ± 0.43 10^−6 cm · s^−1
8 | 2.03 ± 0.35 10^−6 cm · s^−1 | 4.38 ± 0.13 10^−6 cm · s^−1 | Pluronic ® F68 | Efflux reduction sequence (Caco-2 monolayers [1]; Caco-2): Cremophor® RH>Pluronic® F68>Labrasol®>Pluronic® F127
